“Also recorded” adds a separate entry of the source.
Legend:
[1] = tested on: DU145 prostate cancer cells; experiment: MTT cell viability assay, DU145 prostate cancer cells; assay type: cell-based, human
Source text: Cell viability was detected by MTT assays, and the control (PBS-treated) cells were considered 100% viable. Mean±SE (N=3). *P<0.05, **P<0.01, ***P<0.001.
Cell lines and culture: Human cancer and noncancer (immortalized and nonimmortalized) cell lines were obtained from the American Type Culture Collection [prostate cancer (PC3, DU145 and LNCaP), normal prostate (CRL11611), breast cancer (MCF-7), ovarian cancer (SK-OV3 adenocarcinoma), lung cancer (A549)]. MDD2 breast cancer cells (p53 dominant-negative) were provided courtesy of Dr Andrei V. Gudkov, Roswell Park Cancer Institute. 20 All cell lines were cultured in MEM-E (Invitrogen) supplemented with 10% heat-inactivated fetal bovine serum (Atlanta Biological, Inc.), 100 units/mL penicillin, and 100 μg/mL streptomycin at 37° C. in 5% CO2.

PC3 cells = experiment: JC-1 mitochondrial membrane potential assay; assay type: cell-based, human
Method: Cells were stained by using JC-1 Mitochondrial Membrane Potential Assay Kits according to the manufacturer's instructions to measure mitochondrial membrane potential, and fluorescence was measured by flow cytometry. 9B, Caspase-3 is involved in aurB-induced apoptosis. […] The inhibitor was used at the indicated concentrations. Mean±SE (N=3).
JC-1 dye (Invitrogen) was used to determine mitochondrial membrane potential. […] After washing with PBS, trypsinized PC3 cells were incubated with JC-1 dye and analyzed by FACS.

[2] = target: T1, mitochondrial ATP synthase gamma subunit (ATP5C) (Homo sapiens, UniProt P36542); experiment: Pull-down assay with biotin-labeled peptides and protein identification; assay type: binding; conditions: mitochondrial fraction of PC3 cells, biotin-labeled peptide, 16 hr at 4° C.
T1 construct: endogenous in cells; host or cells: PC3 human prostate cancer cells, mitochondrial fraction (detergent extract)
T1 sequence (P36542 26-298): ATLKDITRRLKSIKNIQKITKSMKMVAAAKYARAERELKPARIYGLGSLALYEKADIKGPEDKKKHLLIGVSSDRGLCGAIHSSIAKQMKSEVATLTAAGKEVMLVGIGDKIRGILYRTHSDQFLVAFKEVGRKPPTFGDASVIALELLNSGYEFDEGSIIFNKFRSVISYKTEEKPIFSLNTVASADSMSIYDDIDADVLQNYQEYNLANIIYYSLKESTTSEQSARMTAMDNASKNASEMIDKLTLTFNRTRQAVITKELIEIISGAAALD
Source text: 8A, TEM image of PC3 cells. Representative TEM micrograph of aurB-treated cells depicting the intraritochondrial localization of aurB-GNRs (arrowheads) and mitochondria](Mt) swelling. Scale bar: 600 nm. Mt: mitochondria. […] Coomassie-stained SDS-PAGE gels are shown (8B). The protein band at ˜35 kDa (arrowhead) was identified as ATP5C using mass spectrometry analysis. The identified fragments are indicated in green underlined sequence (SEQ ID NO: 4)(8C).
Pull-down assay and protein identification: PC3 cells were washed twice with PBS, and the mitochondrial fraction was prepared with a Qproteome mitochondria isolation kit (Qiagen). […] The peptides were then preincubated with streptavidin-agarose beads for 4 hr. After washing, the beads were boiled, and the released proteins were subjected to SDS-PAGE analysis. A protein band of ˜35 kDa was subjected to microcapillary LC/MS/MS for protein identification (Harvard Medical School, Taplin Mass Spectrometry Facility). For IB, proteins were transferred to nitrocellulose membranes. After blocking with 5% BSA in TBST, the membranes were incubated with anti-ATP5C antibody at 1:25,000 in 5% BSA/TBST (Abcam) for 16 hr at 4° C. The secondary antibody was applied (anti-goat IgG-HRP; Santa Cruz Biotechnology). The signal was detected using enhanced chemiluminescence (ECL).

## LVN GGD DVA AAV NTA AQN NAD ALF VPPP (LVNGGDDVAAAVNTAAQNNADALFVPPP) [aurB]
[1]; DU145 (p53-mutant, AR−), 24-72 hr, paclitaxel 1 nM
  cytotoxic effect (MTT cell viability): significantly induced dose-dependent cytotoxic effects; also recorded: more sensitive than the normal prostate cell line
[1]; DU145, 100 μM for 72 hr
  inhibition rate: ~50%
[1]; DU145, 5-100 μM, 24 hr
  anti-proliferative effect (MTT cell viability): clear dose-dependent effects
PC3 cells; PC3, 1 μM
  change of mitochondrial membrane potential (JC-1): 17%
PC3 cells; PC3, 10 μM
  change of mitochondrial membrane potential (JC-1): 21%
PC3 cells; PC3, 100 μM
  change of mitochondrial membrane potential (JC-1): 32%
PC3 cells; PC3, 1, 10 and 100 μM
  effect on mitochondrial membrane potential (JC-1): dose-dependently increased
[2]
  binding to ATP5C (pull-down of ~35 kDa protein, IB): physically bound to ATP5C; also recorded: pulled down an endogenous protein

Source: US20250179126A1, “A NOVEL PEPTIDE FROM A PHOTOSYNTHETIC BACERIUM DIRECTLY TARGETS MITOCHONDRIA TO TRIGGER APOPTOSIS IN ADVANCED PROSTATE CANCER CELLS” (priority 2022, published 2025)
